A short description of data set [1]: Peptide stability in simulated gastric fluid (SGF). The format is in vitro ADME. The note with it: pig, simulated gastric fluid (SGF) with porcine pepsin (3.2 g/L), 37 °C, porcine pepsin; for remaining at 4 h, 10 µM: pH 1.2, 4 h. The method, boiled down:
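Peptide incubated at 37 °C with gentle shaking in SGF (NaCl, pH 1.2). Samples centrifuged, diluted and analysed by LC-HRMS; percent remaining at each timepoint from absolute peak areas relative to time zero, with 4 h as the reference point.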

A short description of data set [2]: Peptide stability in simulated intestinal fluid (SIF). The note with it: 37 °C, porcine pancreatin. The data set is classed as in vitro ADME. Put shortly: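 Peptides were incubated at 37 °C with gentle shaking in pH 6.8 potassium phosphate SIF containing porcine pancreatin (10 g/L). Supernatants were analysed by LC-HRMS. Percent remaining at each timepoint, including 4 h, was calculated relative to time zero from absolute peak areas.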

On to `CC(C)C[C@]1(C)NC(=O)[C@H](Cc2ccc3ccccc3c2)NC(=O)[C@H](Cc2ccc(OCCN)cc2)NC(=O)[C@@H]2CCC(=O)N[C@H](CCCCNC(=O)CC[C@@H](C(=O)N[C@@H](CCN)C(=O)N[C@@H](Cc3cccnc3)C(N)=O)NC1=O)C(=O)N[C@@H]([C@@H](C)O)C(=O)N[C@@H](C(C)C)C(=O)N[C@@H](Cc1c[nH]c3ccccc13)C(=O)N[C@@H](CCC(N)=O)C(=O)N2` [Compound 1, [{d}K](1c)(6c)^†TVWQE(6c)[Y(2-aminoethoxy)][2-Nal][2-Me-Leu]E(1c)[Dab][3-(3-Pyridyl)-Ala]-[NH2]], for which the remaining at 1 h, 10 µM in data set [1] (pH 1.2, 10 µM, pH 1.2, 1 h, read-out: SGF (% remaining 1 h)) was 104%; in data set [2] (pig, pH 6.8, 1 h), 23%. For the same compound, the remaining at 4 h, 10 µM in data set [1] (pH 1.2, 10 µM, read-out: SGF (% remaining 4 h)) was 97%; in data set [1] (pH 1.2, SAR tables, % peptide remaining, 10 µM, read-out: SGF (% after 4 h)), 104%; in data set [2] (pig, SAR tables, % peptide remaining, pH 6.8, 4 h, read-out: SIF (% after 4 h)), 0%. Moreover, the “SIF (% remaining 4 h)” value in data set [2] (10 µM, pH 6.8, 4 h) is recorded as 0%.

The values are drawn from patent EP4471048A1, “PEPTIDE INHIBITORS OF INTERLEUKIN-23 RECEPTOR” (Zealand Pharma A/S, priority 2023, dated 2024).
